Reference: patent publication EP1192131B1, “METHOD OF INHIBITING AMYLOID PROTEIN AGGREGATION AND IMAGING AMYLOID DEPOSITS USING ISOINDOLINE DERIVATIVES” (Warner-Lambert Company LLC, priority 1999, dated 2000)
Several values for one entry are separate records, joined by “and”; a condition that tells them apart may be missing. Equal entries are not always repeated. Where two headings read alike, the source gives them in different places.

How the values were obtained:
[1] = molecular target: T1, Aβ (1-40) peptide (Homo sapiens, UniProt P05067); assay: BAPA (Beta-Amyloid Peptide Aggregation, pH 6.0), filtration endpoint assay; assay type: biochemical
T1 construct: 10 µL 0.5 mg/mL Aβ (1-40) peptide in 20% HFIP
T1 sequence (P05067 672-711): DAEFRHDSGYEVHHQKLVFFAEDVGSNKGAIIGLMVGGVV
Protocol: BAPA (Beta-Amyloid Peptide Aggregation
This assay is used to provide a measure of inhibition by a compound against the aggregation behavior of the beta amyloid peptide.
The purpose of this assay is to provide a higher volume method of assaying the amount of beta amyloid aggregation using an endpoint assay based on filtration. In this assay, hexafluoroisopropanol (HFIP) is used to break down the initial amyloid peptide to a monomer state and use a concentration of 33 µM which is high enough so that aggregation will occur at pH 6.0 in several hours.
β-Amyloid Peptide Aggregation. pH 6 0 (BAPA)
In a 96-well plate (Costar 3794), we add 25 µL 50 mM Phosphate Buffer, pH 6.0, 10 µL 0.5 mg/mL Aβ (1-40) peptide in 20% HFIP + 0.1 µL/assay radioiodinated ^125I Aβ (1-40) [^125I Aβ(1-40)], and 1 µL of the compound to be tested starting at 50 mM with a concentration of DMSO <1%. Then, we incubate for 2 to 4 hours at room temperature. We stop the reaction with 200 µL of 50 mM phosphate buffer, pH 6.0, and filter it through a 0.2 µm 96-well filter plate (Millipore MAGU N22) We wash the filter plate with 100 µL of the same phosphate buffer. Aggregation was detected on a Microbeta counter after impregnating the filters with Meltilex (1450-441) and is corrected for background

[2] = molecular target: Aβ(1-40) (Homo sapiens, UniProt P05067); assay: BASST (Beta-Amyloid Self-seeding, ThioflavinT), inhibition of self-seeded amyloid fibril growth; assay type: biochemical; set-up: 30 µM soluble Aβ (1-40) in deionized water in assay buffer; conditions: 30 µM soluble Aβ (1-40), 37°C, 3 to 5 hours, thioflavin T fluorescence, letter in parentheses = lot of compound (no letter = Lot P)
Chain of Aβ(1-40) (P05067 672-711): as above
Protocol: BASST (Beta-Amyloid Self-seeding, ThioflavinT)
An assay for inhibitors of self-seeded amyloid fibril growth
Assay Buffer - 50 mM sodium phosphate, pH 7.5, 100 mM NaCl, 0.02% NaN3, 1 M urea (filter and store at 4°C).
Soluble Aβ (1-40) - 2.2 mg/mL in deionized H2O (store in aliquots at -20°C, keep on ice when thawed) will self-seed after 1 week storage. Typically, the solution should be stored until no lag phase is seen in the assay.
Final assay conditions: 30 µM soluble Aβ (1-40) in deionized water in assay buffer. Compound to be tested is dissolved in DMSO, typically 5-50 mM stock, such that the final concentration of DMSO is <1% v/v in the assay.
Assay: Reaction mixture for 50 assays (on ice) comprised of 1 µL of soluble Aβ (1-40) + 13.5 µL assay buffer per assay. The following are the amounts of the components of the reaction mixture that result in each of the 50 assay wells. 50 µL soluble Aβ (1-40) 675 µL assay buffer
• 1) Prepare the reaction mix above by mixing the components and storing on ice. • 2) Pipet 14.5 µL of reaction mixture into each of 50 wells of a polystyrene U-bottom 96-well microtiter plate (Coming 25881-96) on ice. • 3) Add 1.7 µL of diluted compound to be tested to each well in a column of eight, including solvent control. Serial 3-fold dilutions from 1 mM (100 µM final) in assay buffer -urea = 7 dilutions + zero. Each 96-well plate can therefore accommodate 11 samples + 1 Congo Red control (0.039-5 µM final in 2-fold steps). • 4) Seal the plate with aluminum film and incubate for 10 minutes on ice. • 5) Raise the temperature to 37°C and incubate for 3 to 5 hours (depends on the lot of the peptide). • 6) Remove the aluminum film and add 250 µL/well of 5 µM thioflavin T (ThT) [T-3516, Sigma-Aldrich] in 50 mM glycine-NaOH, pH 8.5. Read fluorescence on a plate reader (ex = 440 nm/20 nm; em = 485 nm/20 nm) within 5 minutes.

[3] = Aβ (1-40) 33 µM, pH 6.0, 2 to 4 hours at room temperature; letter in parentheses = lot of compound (no letter = Lot P); read-out: BAPA IC50
[4] = read-out: BASST IC50 (converted)
[5] = read-out: BAPA IC50; Aβ (1-40) 33 µM, pH 6.0, 2 to 4 hours at room temperature; letter in parentheses = lot of compound (no letter = Lot P)

Compound | IC50 [1, 3] | IC50 [2, 4] | IC50 [1, 5] [µM] | IC50 ([2]; read-out: BASST IC50) [µM]
2-[2-(4-chlorophenyl)-2,3-dihydro-1H-isoindol-5-ylamino]benzoic acid [Example 8] | 19 µM | 1 µM |  | 
2-[2-(3,4-Dimethylphenyl)-2,3-dihydro-1H-isoindol-5-ylamino]benzoic acid [Example 9] | 13 µM | 1.5 µM |  | 
O=C(O)c1ccccc1Nc1ccc2c(c1)CN(c1ccc(Cl)c(C(F)(F)F)c1)C2 [Example 10, 2-[2-(4-Chloro-3-trifluoromethylphenyl)-2,3-dihydro-1H-isoindol-5-ylamino]benzoic acid] |  |  | 16 | 3
COc1cc(Nc2ccc3c(c2)CN(c2ccc(Cl)c(Cl)c2)C3)c(C(=O)O)cc1[N+](=O)[O-] [Example 6, 2-[2-(3,4-Dichlorophenyl)-2,3-dihydro-1H-isoindol-5-ylamino]-4-methoxy-5-nitro-benzoic acid] | 14 µM | 1 µM and 1.5 µM |  | 
2-[2-(3-chlorophenyl)-2,3-dihydro-1H-isoindol-5-ylamino]benzoic acid [Example 7] | 28 µM | 1.1 µM |  | 
Cc1ccc(N2Cc3ccc(Nc4ccc([N+](=O)[O-])cc4C(=O)O)cc3C2)cc1C [Example 12, 2-[2-(3,4-Dimethyl-phenyl)-2,3-dihydro-1H-isoindol-5-ylamino]-5-nitro-benzoic acid] | 5 µM | 1.1 µM |  | 
O=C(O)c1cc([N+](=O)[O-])ccc1Nc1ccc2c(c1)CN(c1ccc(Cl)cc1)C2 [Example 15, 2-[2-(4-Chloro-phenyl)-2,3-dihydro-1H-isoindol-5-ylamino]-5-nitro-benzoic acid] | > 100 µM | 0.6 µM |  | 
O=C(O)c1ccccc1Nc1ccc2c(c1)CN(c1ccc(Cl)c(Cl)c1)C2 [Example 4, 2-[2-(3,4-Dichlorophenyl)-2,3-dihydro-1H-isoindol-5-ylamino]benzoic acid] | 101 µM and > 100 µM and 93 µM | 2 µM |  | 
O=C(O)c1cc([N+](=O)[O-])ccc1Nc1ccc2c(c1)CN(c1ccc(Cl)c(C(F)(F)F)c1)C2 [Example 19, 2-[2-(4-Chloro-3-trifluoromethyl-phenyl)-2,3-dihydro-1H-isoindol-5-ylamino]-5-nitro-benzoic acid] |  |  | > 10 | 1

Continued, in another order:

IC50 [1, 3] | IC50 [2, 4] | Compound | IC50 [1, 5] [µM] | IC50 ([2]; read-out: BASST IC50) [µM]
> 60 µM | 10 µM | COc1cccc(N2Cc3ccc(Nc4ccccc4C(=O)O)cc3C2)c1 [Example 26, 2-[2-(3-Methoxy-phenyl)-2,3-dihydro-1H-isoindol-5-ylamino]-benzoic acid] |  | 
> 60 µM | 6 µM and 2 µM | O=C(O)c1ccccc1Nc1ccc2c(c1)CN(c1cccc(F)c1)C2 [Example 22, 2-[2-(3-Fluoro-phenyl)-2,3-dihydro-1H-isoindol-5-ylamino]-benzoic acid] |  | 
62 µM | 3 µM and 2 µM (2×) | O=C(O)c1cc(F)ccc1Nc1ccc2c(c1)CN(c1ccc(Cl)c(Cl)c1)C2 [Example 23, 2-[2-(3,4-Dichloro-phenyl)-2,3-dihydro-1H-isoindol-5-ylamino]-5-fluoro-benzoic acid] |  | 
> 60 µM | 0.7 µM | COc1cccc(N2Cc3ccc(Nc4ccc([N+](=O)[O-])cc4C(=O)O)cc3C2)c1 [Example 21, 2-[2-(3-Methoxy-phenyl)-2,3-dihydro-1H-isoindol-5-ylamino]-5-nitro-benzoic acid] |  | 
86 µM | 1.8 µM | Clc1ccc(N2Cc3ccc(Nc4ccccc4-c4nnn[nH]4)cc3C2)cc1Cl [Example 16, [2-(3,4-Dichloro-phenyl)-2,3-dihydro-1H-isoindol-5-yl]-[2-(1H-tetrazol-5-yl)-phenyl]-amine] |  | 
97 µM | 0.9 µM and 1 µM and 0.6 µM | O=C(O)c1cc([N+](=O)[O-])ccc1Nc1ccc2c(c1)CN(c1ccccc1)C2 [Example 18, 5-Nitro-2-(2-phenyl-2,3-dihydro-1H-isoindol-5-ylamino)-benzoic acid] |  | 
> 60 µM | 2 µM | O=C(O)c1cc([N+](=O)[O-])ccc1Nc1ccc2c(c1)CN(c1cccc(F)c1)C2 [Example 20, 2-[2-(3-Fluoro-phenyl)-2,3-dihydro-1H-isoindol-5-ylamino]-5-nitro-benzoic acid] |  | 
40 µM | 1.5 µM | Nc1ccc(Nc2ccc3c(c2)CN(c2ccc(Cl)c(Cl)c2)C3)c(C(=O)O)c1 [Example 17, 5-Amino-2-[2-(3,4-dichloro-phenyl)-2,3-dihydro-1H-isoindol-5-ylamino]-benzoic acid] |  | 
25 µM | 15 µM | COc1cc(N2Cc3ccc(Nc4ccccc4C#N)cc3C2)cc(OC)c1OC [Example 25, 2-[2-(3,4,5-Trimethoxy-phenyl)-2,3-dihydro-1H-isoindol-5-ylamino]-benzonitrile] |  | 
